Blank lines part the entries; values can stand above or below the compound they belong to.
Key:
[1] = tested on: AKT1/2/3 (Ser473) phosphorylation (mTORC2) in MDA-MB-468 cells; assay: Cell based AlphaLISA assay, mTOR kinase cellular assay: inhibition of p-Akt (S473) in MDA-MB-468 cells; conditions: Homo sapiens, read-out: pIC50 for Inhibition of mTORC1 and mTORC2 Substarte Phosphorylation p-AKT1/2/3-(S473) (converted)
Description: Cell Based AlphaLISA Assays for Determining IC50 For Inhibition of P-Akt (S473), P-4E-BP1 (T37/46), and P-P70S6K (T389) in MDA-MB-468 Cells
mTOR Kinase Cellular Assay
To measure functional activity of mTORC1 and mTORC2 in cells the phosphorylation of 4EBP1 (Thr37/46) and P70S6K (Thr389), and AKT1/2/3 (Ser473) was monitored using AlphaLisa SureFire Ultra Kits (Perkin Elmer). MDA-MB-468 cells (ATCC® HTB-132) were cultured in 96-well tissue culture plates and treated with compounds in the disclosure at concentrations varying from 0.017-1,000 nM for two to four hours at 37° C. Incubations were terminated by removal of the assay buffer and addition of lysis buffer provided with the assay kit. Samples were processed according to the manufacturer's instructions. The Alpha signal from the respective phosphoproteins was measured in duplicate using a microplate reader (Envision, Perkin-Elmer or Spectramax M5, Molecular Devices). Inhibitor concentration response curves were analyzed using normalized IC50 regression curve fitting with control based normalization.

[2] = tested on: AsPC-1 (K-Ras G12D); assay: Potency assay: pERK; assay type: cell-based; conditions: Homo sapiens, ASPC1, read-out: pERK EC50
[3] = biological target: KRAS Q61H (Homo sapiens, UniProt P01116+P62937, Q61H); assay: Ras-Raf disruption / FRET / MOA assay (BRAF RBD); assay type: biochemical
Sequence of KRAS Q61H (P01116 1-169 isoform P01116-2 Q61H limits assumed): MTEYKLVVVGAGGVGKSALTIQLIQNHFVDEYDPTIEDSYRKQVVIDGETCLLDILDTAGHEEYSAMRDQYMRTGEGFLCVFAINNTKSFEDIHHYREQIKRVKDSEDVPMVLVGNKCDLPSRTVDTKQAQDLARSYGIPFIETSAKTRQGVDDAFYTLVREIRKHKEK
Sequence of KRAS Q61H (P62937 whole entry): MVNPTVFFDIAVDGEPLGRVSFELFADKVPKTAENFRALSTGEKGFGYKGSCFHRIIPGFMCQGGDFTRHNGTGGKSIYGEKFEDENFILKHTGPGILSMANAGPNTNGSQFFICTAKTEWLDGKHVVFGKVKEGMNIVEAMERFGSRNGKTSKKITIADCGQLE
Method in brief: (§1)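 TR-FRET in 25 mM HEPES pH 7.3, 100 mM NaCl, 5 mM MgCl2, 0.1% BSA, 0.002% Tween20 with 25 μM Cyclophilin A, 12.5 nM His6-Ras-GMPPNP, 50 nM GST-BRAF RBD; compound 10-point 3-fold series from 30 μM. After 3 h at 25 °C, Eu anti-His/APC anti-GST added for 1.5 h; IC50 from ratio decrease versus DMSO.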

[4] = biological target: KRAS G13C (Homo sapiens, UniProt P01116+P62937, G13C); assay: Ras-Raf disruption / FRET / MOA assay (BRAF RBD); assay type: biochemical; conditions: KRAS G13C FRET data IC50, Ras-Raf disruption, with Cyclophilin A
Sequence of KRAS G13C (P01116 1-169 isoform P01116-2 G13C limits assumed): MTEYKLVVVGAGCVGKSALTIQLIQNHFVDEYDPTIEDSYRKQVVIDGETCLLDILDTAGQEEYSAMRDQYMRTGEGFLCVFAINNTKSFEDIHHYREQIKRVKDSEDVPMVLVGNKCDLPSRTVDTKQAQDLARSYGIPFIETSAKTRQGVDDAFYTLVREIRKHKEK
Sequence of KRAS G13C (P62937 whole entry): as the sequence (P62937 whole entry) above
Method in brief: as §1

[5] = biological target: NRAS G12C (Homo sapiens, UniProt P01111+P62937, G12C); assay: Ras-Raf disruption / FRET / MOA assay (BRAF RBD); assay type: biochemical; conditions: NRAS G12C FRET data IC50, NRAS G12C
Sequence of NRAS G12C (P01111 whole entry G12C): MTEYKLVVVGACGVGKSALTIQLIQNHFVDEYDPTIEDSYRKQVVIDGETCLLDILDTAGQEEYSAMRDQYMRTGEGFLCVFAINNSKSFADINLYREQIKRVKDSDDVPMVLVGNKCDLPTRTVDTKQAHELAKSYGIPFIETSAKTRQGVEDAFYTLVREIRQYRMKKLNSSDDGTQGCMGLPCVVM
Sequence of NRAS G12C (P62937 whole entry): as the sequence (P62937 whole entry) above
Method in brief: as §1

[6] = biological target: KRAS G12D (Homo sapiens, UniProt P01116+P62937, G12D); assay: Ras-Raf disruption / FRET / MOA assay (BRAF RBD); assay type: biochemical; conditions: KRAS G12D FRET data IC50, Ras-Raf disruption, with Cyclophilin A
Sequence of KRAS G12D (P01116 1-169 isoform P01116-2 G12D limits assumed): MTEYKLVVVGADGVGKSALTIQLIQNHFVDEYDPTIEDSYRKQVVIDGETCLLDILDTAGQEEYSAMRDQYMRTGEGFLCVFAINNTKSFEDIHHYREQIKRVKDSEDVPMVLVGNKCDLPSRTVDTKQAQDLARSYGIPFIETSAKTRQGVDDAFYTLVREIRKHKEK
Sequence of KRAS G12D (P62937 whole entry): as the sequence (P62937 whole entry) above
Method in brief: as §1

[7] = biological target: NRAS Q61R (Homo sapiens, UniProt P01111+P62937, Q61R); assay: Ras-Raf disruption / FRET / MOA assay (BRAF RBD); assay type: biochemical
Sequence of NRAS Q61R (P01111 whole entry Q61R): as the sequence (P01111 whole entry G12C) above, with C12G, Q61R counted along it
Sequence of NRAS Q61R (P62937 whole entry): as the sequence (P62937 whole entry) above
Method in brief: as §1

[8] = biological target: KRAS G12S (Homo sapiens, UniProt P01116+P62937, G12S); assay: Ras-Raf disruption / FRET / MOA assay (BRAF RBD); assay type: biochemical; conditions: KRAS G12S FRET data IC50, Ras-Raf disruption, with Cyclophilin A
Sequence of KRAS G12S (P01116 1-169 isoform P01116-2 G12S limits assumed): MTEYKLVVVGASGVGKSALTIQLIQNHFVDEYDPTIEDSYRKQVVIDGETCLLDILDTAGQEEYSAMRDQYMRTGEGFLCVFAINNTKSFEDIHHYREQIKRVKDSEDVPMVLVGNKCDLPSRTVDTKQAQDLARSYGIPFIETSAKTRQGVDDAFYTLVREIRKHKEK
Sequence of KRAS G12S (P62937 whole entry): as the sequence (P62937 whole entry) above
Method in brief: as §1

[9] = biological target: NRAS Q61K (Homo sapiens, UniProt P01111+P62937, Q61K); assay: Ras-Raf disruption / FRET / MOA assay (BRAF RBD); assay type: biochemical
Sequence of NRAS Q61K (P01111 whole entry Q61K): as the sequence (P01111 whole entry G12C) above, with C12G, Q61K counted along it
Sequence of NRAS Q61K (P62937 whole entry): as the sequence (P62937 whole entry) above
Method in brief: as §1

[10] = biological target: KRAS WT (Homo sapiens, UniProt P01116+P62937); assay: Ras-Raf disruption / FRET / MOA assay (BRAF RBD); assay type: biochemical; conditions: KRAS WT FRET data IC50, Ras-Raf disruption, with Cyclophilin A
Sequence of KRAS WT (P01116 1-169 isoform P01116-2 limits assumed): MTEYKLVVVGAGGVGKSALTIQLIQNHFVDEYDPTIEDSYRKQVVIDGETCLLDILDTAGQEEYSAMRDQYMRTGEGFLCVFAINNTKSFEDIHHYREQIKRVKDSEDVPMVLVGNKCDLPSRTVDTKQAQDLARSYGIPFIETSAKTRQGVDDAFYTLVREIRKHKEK
Sequence of KRAS WT (P62937 whole entry): as the sequence (P62937 whole entry) above
Method in brief: as §1

[11] = biological target: KRAS G12V (Homo sapiens, UniProt P01116+P62937, G12V); assay: Ras-Raf disruption / FRET / MOA assay (BRAF RBD); assay type: biochemical; conditions: KRAS G12V FRET data IC50, Ras-Raf disruption, with Cyclophilin A
Sequence of KRAS G12V (P01116 1-169 isoform P01116-2 G12V limits assumed): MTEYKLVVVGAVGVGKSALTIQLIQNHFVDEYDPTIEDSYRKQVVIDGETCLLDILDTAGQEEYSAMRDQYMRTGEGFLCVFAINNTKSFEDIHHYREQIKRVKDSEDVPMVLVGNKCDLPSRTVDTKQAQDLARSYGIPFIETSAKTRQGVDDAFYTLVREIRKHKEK
Sequence of KRAS G12V (P62937 whole entry): as the sequence (P62937 whole entry) above
Method in brief: as §1

[12] = biological target: KRAS G13D (Homo sapiens, UniProt P01116+P62937, G13D); assay: Ras-Raf disruption / FRET / MOA assay (BRAF RBD); assay type: biochemical; conditions: KRAS G13D FRET data IC50, Ras-Raf disruption, with Cyclophilin A
Sequence of KRAS G13D (P01116 1-169 isoform P01116-2 G13D limits assumed): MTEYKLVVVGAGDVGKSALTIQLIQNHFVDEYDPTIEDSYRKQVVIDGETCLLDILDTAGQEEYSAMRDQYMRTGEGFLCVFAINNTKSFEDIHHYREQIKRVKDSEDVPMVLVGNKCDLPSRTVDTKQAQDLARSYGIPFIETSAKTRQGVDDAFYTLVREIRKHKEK
Sequence of KRAS G13D (P62937 whole entry): as the sequence (P62937 whole entry) above
Method in brief: as §1

[13] = biological target: NRAS WT (Homo sapiens, UniProt P01111+P62937); assay: Ras-Raf disruption / FRET / MOA assay (BRAF RBD); assay type: biochemical
Sequence of NRAS WT (P01111 whole entry): as the sequence (P01111 whole entry G12C) above, with C12G counted along it
Sequence of NRAS WT (P62937 whole entry): as the sequence (P62937 whole entry) above
Method in brief: as §1

[14] = tested on: AsPC-1 (K-Ras G12D); assay: CellTiter-Glo cell viability assay; assay type: cell-based; conditions: Homo sapiens, ASPC1, 120 h, read-out: AsPC-1 Cell Viability assay data IC50, K-Ras G12D, 5-day treatment
Description: Determination of Cell Viability in RAS Mutant Cancer Cell Lines
Protocol: CellTiter-Glo® Cell Viability Assay
Note—The following protocol describes a procedure for monitoring cell viability of K-Ras mutant cancer cell lines in response to a compound of the invention. Other RAS isoforms may be employed, though the number of cells to be seeded will vary based on cell line used.
Test compounds (132.5 nL) were directly dispensed into the assay plates containing cells. […] On day 5, assay plates and their contents were equilibrated to room temperature for approximately 30 minutes. […] Luminescence was measured using the PerkinElmer Enspire. Data were normalized by the following: (Sample signal/Avg. DMSO)*100. The data were fit using a four-parameter logistic fit.

[15] = biological target: KRAS G12C (Homo sapiens, UniProt P01116+P62937, G12C); assay: Ras-Raf disruption / FRET / MOA assay (BRAF RBD); assay type: biochemical; conditions: KRAS G12C FRET data IC50, Ras-Raf disruption, with Cyclophilin A
Sequence of KRAS G12C (P01116 1-169 isoform P01116-2 G12C limits assumed): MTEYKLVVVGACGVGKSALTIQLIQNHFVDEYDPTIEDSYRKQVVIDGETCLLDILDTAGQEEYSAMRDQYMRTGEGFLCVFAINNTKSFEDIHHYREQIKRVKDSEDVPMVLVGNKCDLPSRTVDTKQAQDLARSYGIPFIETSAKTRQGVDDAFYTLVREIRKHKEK
Sequence of KRAS G12C (P62937 whole entry): as the sequence (P62937 whole entry) above
Method in brief: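 His6-K-Ras G12C-GMPPNP (12.5 nM), GST-BRAF RBD (50 nM) and tagless Cyclophilin A (25 μM) incubated 3 h at 25 °C with compound (10-point 3-fold series from 30 μM), pH 7.3 HEPES buffer. Anti-His Eu/anti-GST APC added for 1.5 h; decreased TR-FRET ratio vs DMSO gives IC50.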

Compound: CO[C@H]1C[C@@H]2CC[C@@H](C)[C@@](O)(O2)C(=O)C(=O)N2CCCC[C@H]2C(=O)O[C@H]([C@H](C)C[C@@H]2CC[C@@H](OC(=O)NCc3cnc(N4CCN(c5ncc(C(=O)NCCOCCOCCOCCOCCC(=O)N6CCc7cc(Cn8nc(-c9cnc%10[nH]ccc%10c9)c9c(N)ncnc98)ccc7C6)cn5)CC4CO)nc3)[C@H](OC)C2)CC(=O)[C@H](C)/C=C(\C)[C@@H](O)[C@@H](OC)C(=O)[C@H](C)C[C@H](C)/C=C/C=C/C=C/1C (stereo partly drawn) [Example 41]
IC50 [1]: > 1000 nM

IC50 [1]: 3.16 to 31.6 nM
Compound: CO[C@H]1C[C@@H]2CC[C@@H](C)[C@@](O)(O2)C(=O)C(=O)N2CCCC[C@H]2C(=O)O[C@H]([C@H](C)C[C@@H]2CC[C@@H](OC(=O)NCc3cnc(N4CCN(c5ncc(C(=O)NCCOCCC(=O)N6CCN(c7ncc(C(=O)NCCCCn8nc(-c9ccc%10oc(N)nc%10c9)c9c(N)ncnc98)cn7)CC6)cn5)CC4)nc3)[C@H](OC)C2)CC(=O)[C@H](C)/C=C(\C)[C@@H](O)[C@@H](OC)C(=O)[C@H](C)C[C@H](C)/C=C/C=C/C=C/1C [Example 53]

Compound: CO[C@H]1C[C@@H]2CC[C@@H](C)[C@@](O)(O2)C(=O)C(=O)N2CCCC[C@H]2C(=O)O[C@H]([C@H](C)C[C@@H]2CC[C@@H](OC(=O)NCCOCCOCCOCCOCCOCCOCCOCCOCC(=O)N3CCc4cc(Cn5nc(-c6ccc7oc(N)nc7c6)c6c(N)ncnc65)ccc4C3)[C@H](OC)C2)C[C@@H](O)[C@H](C)/C=C(\C)[C@@H](O)[C@@H](OC)C(=O)[C@H](C)C[C@H](C)/C=C/C=C/C=C/1C [Example 72]
IC50 [1]: ≤ 3.16 nM

Compound: CO[C@H]1C[C@@H]2CC[C@@H](C)[C@@](O)(O2)C(=O)C(=O)N2CCCC[C@H]2C(=O)O[C@H]([C@H](C)C[C@@H]2CC[C@@H](OC(=O)NCCOCCOCCOCCOCCOCCOCCOCCOCCC(=O)NCc3ccc(Cn4nc(-c5ccc6oc(N)nc6c5)c5c(N)ncnc54)cc3)[C@H](OC)C2)CC(=O)[C@H](C)/C=C(\C)[C@@H](O)[C@@H](OC)C(=O)[C@H](C)C[C@H](C)/C=C/C=C/C=C/1C [Example 79]
IC50 [1]: 31.6 to 1000 nM

Compound: CO[C@H]1C[C@@H]2CC[C@@H](C)[C@@](O)(O2)C(=O)C(=O)N2CCCC[C@H]2C(=O)O[C@H]([C@H](C)C[C@@H]2CC[C@@H](OC(=O)N3CCc4nc(N5CCN(C(=O)CCOCCN6CCN(c7ncc(C(=O)N8CCc9cc(Cn%10nc(-c%11ccc%12oc(N)nc%12c%11)c%11c(N)ncnc%11%10)ccc9C8)cn7)CC6)CC5)ncc4C3)[C@H](OC)C2)C[C@@H](OC)[C@H](C)/C=C(\C)[C@@H](O)[C@@H](OC)C(=O)[C@H](C)C[C@H](C)/C=C/C=C/C=C/1C [Example 114]
IC50 [1]: > 1000 nM

Compound: CO[C@H]1C[C@@H]2CC[C@@H](C)[C@@](O)(O2)C(=O)C(=O)N2CCCC[C@H]2C(=O)O[C@H]([C@H](C)C[C@@H]2CC[C@@H](OC(=O)NCc3cnc(N4CCN(C(=O)CCOCCN5CCN(c6ncc(C(=O)N7CCc8cc(Cn9nc(-c%10ccc%11oc(N)nc%11c%10)c%10c(N)ncnc%109)ccc8C7)cn6)CC5)CC4)nc3)[C@H](OC)C2)CC[C@H](C)/C=C(\C)[C@@H](O)[C@@H](OC)C(=O)[C@H](C)C[C@H](C)/C=C/C=C/C=C/1C [Example 115]
IC50 [1]: ≤ 3.16 nM

Compound: CO[C@H]1C[C@@H]2CC[C@@H](C)[C@@](O)(O2)C(=O)C(=O)N2CCCC[C@H]2C(=O)O[C@H]([C@H](C)C[C@@H]2CC[C@@H](OC(=S)NCc3cnc(N4CCN(C(=O)CCOCCN5CCN(c6ncc(C(=O)N7CCc8cc(Cn9nc(-c%10ccc%11oc(N)nc%11c%10)c%10c(N)ncnc%109)ccc8C7)cn6)CC5)CC4)nc3)[C@H](OC)C2)CC(=O)[C@H](C)/C=C(\C)[C@@H](O)[C@@H](OC)C(=O)[C@H](C)C[C@H](C)/C=C/C=C/C=C/1C [Example 116]
IC50 [1]: > 1000 nM

Compound: CO[C@H]1C[C@@H]2CC[C@@H](C)[C@@](O)(O2)C(=O)C(=O)N2CCCC[C@H]2C(=O)O[C@H]([C@H](C)C[C@@H]2CC[C@@H](OC(=S)NCc3cnc(N4CCN(C(=O)CCOCCN5CCN(c6ncc(C(=O)N7CCc8cc(Cn9nc(-c%10ccc%11oc(N)nc%11c%10)c%10c(N)ncnc%109)ccc8C7)cn6)CC5)CC4)nc3)[C@H](OC)C2)C[C@@H](OC)[C@H](C)/C=C(\C)[C@@H](O)[C@@H](OC)C(=O)[C@H](C)C[C@H](C)/C=C/C=C/C=C/1C [Example 118]
IC50 [1]: 3.16 to 31.6 nM

IC50 [1]: 3.16 to 31.6 nM
Compound: CO[C@H]1C[C@@H]2CC[C@@H](C)[C@@](O)(O2)C(=O)C(=O)N2CCCC[C@H]2C(=O)O[C@H]([C@H](C)C[C@@H]2CC[C@@H](OC(=O)NCc3cnc(N4CCN(C(=O)CCOCCN5CCN(c6ncc(C(=O)NCCS(=O)(=O)c7ccc(C(=O)N8CCOc9ccc(-c%10ccc(N)nc%10)cc9C8)c(C)c7F)cn6)CC5)CC4)nc3)[C@H](OC)C2)C[C@@H](OC)[C@H](C)/C=C(\C)[C@@H](O)[C@@H](OC)C(=O)[C@H](C)C[C@H](C)/C=C/C=C/C=C/1C [Example 120]

IC50 [1]: > 1000 nM
Compound: CO[C@H]1C[C@@H]2CC[C@@H](C)[C@@](O)(O2)C(=O)C(=O)N2CCCC[C@H]2C(=O)O[C@H]([C@H](C)C[C@@H]2CC[C@@H](OC(=O)NCc3cnc(N4CCN(C(=O)CCOCCN5CCN(c6ncc(C(=O)NCCS(=O)(=O)c7ccc(C(=O)N8CCOc9ccc(-c%10ccc(N)nc%10)cc9C8)c(C)c7)cn6)CC5)CC4)nc3)[C@H](OC)C2)CC(=O)[C@H](C)/C=C(\C)[C@@H](O)[C@@H](OC)C(=O)[C@H](C)C[C@H](C)/C=C/C=C/C=C/1C [Example 121]

Compound: CCn1c(-c2cccnc2[C@H](C)OC)c2c3cc(ccc31)-c1cc(O)cc(c1)C[C@H](NC(=O)[C@H](C(C)C)N(C)C(=O)CN(C)C(=O)[C@H]1N[C@@H]1C1COC1)C(=O)N1CCC[C@H](N1)C(=O)OCC(C)(C)C2 [Example 284]
EC50 [2]: < 5 µM | IC50 [3]: 10 to 100 nM | IC50 [4]: < 10 nM | IC50 [5]: < 10 nM | IC50 [6]: 10 to 100 nM | IC50 [7]: 100 to 1000 nM | IC50 [8]: 10 to 100 nM | IC50 [9]: 100 to 1000 nM | IC50 [10]: 10 to 100 nM | IC50 [11]: 10 to 100 nM | IC50 [12]: 10 to 100 nM | IC50 [13]: 10 to 100 nM | IC50 [14]: 1 to 10 µM | IC50 [15]: 10 to 100 nM

Source: US20230233569A1 (Revolution Medicines, Inc., priority 2020, published 2023)
